Values of other authors, collected in patent publication US9636300B2, “Racecadotril lipid compositions” (JOHNSON & JOHNSON CONSUMER INC., priority 2013, dated 2017).

Settings: room temperature conditions

CC(=O)SCC(Cc1ccccc1)C(=O)NCC(=O)OCc1ccccc1 (stereo not shown) [Racecadotril]
water solubility: about 10 micrograms/ml
